This assay addresses T1, IKK2 (Homo sapiens, UniProt O14920).
T1 construct: made in house; host or cells: insect cells (baculovirus, pFastBac; SF9)
T1 sequence (O14920 1-756): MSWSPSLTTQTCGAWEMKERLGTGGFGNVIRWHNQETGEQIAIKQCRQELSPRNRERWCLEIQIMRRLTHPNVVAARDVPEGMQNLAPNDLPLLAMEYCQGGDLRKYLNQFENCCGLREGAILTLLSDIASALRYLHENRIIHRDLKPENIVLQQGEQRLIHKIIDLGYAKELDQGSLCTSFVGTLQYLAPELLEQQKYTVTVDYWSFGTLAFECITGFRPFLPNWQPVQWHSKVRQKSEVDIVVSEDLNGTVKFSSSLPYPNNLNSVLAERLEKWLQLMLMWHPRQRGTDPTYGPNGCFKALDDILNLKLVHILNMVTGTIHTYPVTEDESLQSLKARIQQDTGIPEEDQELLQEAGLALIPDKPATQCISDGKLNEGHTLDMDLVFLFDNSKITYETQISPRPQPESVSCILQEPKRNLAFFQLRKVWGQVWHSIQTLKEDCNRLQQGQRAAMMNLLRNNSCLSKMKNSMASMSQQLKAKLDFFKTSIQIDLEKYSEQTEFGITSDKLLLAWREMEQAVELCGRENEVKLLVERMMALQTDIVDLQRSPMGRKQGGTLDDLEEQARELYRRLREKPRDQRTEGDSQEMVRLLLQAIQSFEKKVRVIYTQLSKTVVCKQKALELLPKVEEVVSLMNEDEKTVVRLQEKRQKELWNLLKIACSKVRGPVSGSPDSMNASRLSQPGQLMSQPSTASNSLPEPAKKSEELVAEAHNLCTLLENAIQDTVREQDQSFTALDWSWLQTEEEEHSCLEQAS
In words: IKKβ Resin Enzyme Assay (IKK2 resin). The format is biochemical. An excerpt:
cDNAs of human IKK1 and IKK2 were amplified by reverse transcriptase-polymerase chain reaction from human placental RNA (Clonetech). hIKK1 was subcloned into pFastBac HTa (Life Technologies) and expressed as N-terminal His6-tagged fusion protein. The hIKK2 cDNA was amplified using a reverse oligonucleotide primer which incorporated the peptide sequence for a FLAG-epitope tag at the C-terminus of the IKK2 coding region ([…]). The hIKK2:FLAG cDNA was subcloned into the baculovirus vector pFastBac. The rhIKK2 ([…]) mutant was constructed in the same vector used for wild type rhIKK2 using a QuikChange™ mutagenesis kit (Stratagene). Viral stocks of each construct were used to infect insect cells grown in 40 L suspension culture. […] Cell lysates were stored at −80° C. until purification of the recombinant proteins was undertaken as described below.
A 10-liter culture of baculovirus-expressing IKK2 tagged with FLAG peptide was centrifuged and the cell pellet (MOI=0.1 and I=72 hrs) was re-suspended in buffer A. These cells were microfluidized, and centrifuged at 100,000×g for 45 min. Supernatant was passed over a G-25 column equilibrated with Buffer A. Protein peak was collected and incubated with anti-FLAG affinity resin on a rotator overnight in buffer B. The resin was washed in batch with 10–15 bed volumes of buffer C. Washed resin was poured into a column and rhIKK2 homodimer was eluted using 5 bed volumes of buffer B containing FLAG peptide. 5 mM DTT, 0.1% NP-40 and BSA (concentrated to 0.1% in final amount) was added to the eluted enzyme before concentrating in using an Amicon membrane with a molecular weight cut-off of 30 kDa. Enzyme was aliquoted and stored at −80° C.
IKKβ kinase activity was measured using a biotinylated IκBα peptide ([…]32-Gly-Leu-Asp-Ser36-Met-Lys-Asp-Glu-Glu) (American Peptide Co.). […] ATP (Amersham) (about 1×10^5 cpm), 1 μM ATP (Sigma), 1 mM DTT (Sigma), 2 mM MgCl2 (Sigma), 2 mM MnCl2 (Sigma), 10 mM NaF (Sigma), 25 mM Hepes (Sigma) buffer, pH 7.6 and 20 μl enzyme solution and 10 ul inhibitor in a final volume of 50 μl. After incubation at 25° C. for 30 min, 150 μl resin (Dowex anion-exchange resin AG1X8 200–400 mesh) in 900 mM formate, pH 3.0 was added to each well to stop the reaction. Resin was allowed to settle for one hour and 50 ul of supernatant was removed to a Micolite-2 flat bottom plate (Dynex). 150 μl of scintillation fluid (Microscint 40) (Packard) was added to each well. Incorporation of [γ-^33P] ATP was measured using a Top-Count NXT (Packard).

The mark [1] stands for this setting: Table 2, read-out: IKK Resin IC50.
[2] abbreviates: Table 6, read-out: IKK2 Resin IC 50.
Where [3] appears, read: Table 11, read-out: IKK2 Resin IC50.

Each structure is given as a SMILES string. Where a name gives a salt, the structure may show the parent alone. Read-outs that look alike come from different tables or passages of the source.

The values that follow come from US7186743B2, “Substituted pyrazolyl compounds for the treatment of inflammation” (Pharmacia Corporation, priority 2001, dated 2007).

As for `CS(=O)(=O)c1ccc(-n2nc(C(N)=O)c3c2-c2cc(NC(=O)c4cccc(N)c4Cl)ccc2CC3)cc1` [Example 116, 8-[(3-amino-2-chlorobenzoyl)amino]-1-[4-(methylsulfonyl)phenyl]-4,5-dihydro-1H-benzo[g]indazole-3-carboxamide], the IC50 under setting [1] was no more than 1 µM.

`CS(=O)(=O)c1ccc(-n2nc(C(N)=O)c3c2-c2cc(NC(=O)c4ccccc4C(F)(F)F)ccc2CC3)cc1` [Example 93, 1-[4-(methylsulfonyl)phenyl]-8-{[2-(trifluoromethyl)benzoyl]amino}-4,5-dihydro-1H-benzo[g]indazole-3-carboxamide]: the IC50 under setting [1] was no more than 1 µM. Regarding `CN(C)CCNC(=O)c1ccc(-n2nc(C(N)=O)c3c2-c2cc(NC(=O)c4ccccc4Cl)ccc2CC3)cc1` [Example 380, 8-[(2-chlorobenzoyl)amino]-1-[4-({[2-(dimethylamino)ethyl]amino}carbonyl)phenyl]-4,5-dihydro-1H-benzo[g]indazole-3-carboxamide hydrochloride], where the note is “Table 15, read-out: IKK2 Resin IC50”, the IC50 fell in the range of 1 to 10 µM. Turning to `CS(=O)(=O)c1ccc(-n2nc(C(N)=O)c3c2-c2cc(NC(=O)c4cc5c(cc4Cl)OCO5)ccc2CC3)cc1` [Example 125, 8-{[(6-chloro-1,3-benzodioxol-5-yl)carbonyl]amino}-1-[4-(methylsulfonyl)phenyl]-4,5-dihydro-1H-benzo[g]indazole-3-carboxamide], under setting [1], the IC50 is no more than 1 µM. Regarding `C=Cc1ccc(-n2nc(C(N)=O)c3c2-c2cc(NC(=O)c4cccnc4Cl)ccc2CC3)cc1` [Example 389, 8-{[(2-chloropyridin-3-yl)carbonyl]amino}-1-(4-vinylphenyl)-4,5-dihydro-1H-benzo[g]indazole-3-carboxamide], the IC50 (Table 17, read-out: IKK2 Resin IC50) is no more than 1 µM. Regarding `COc1cc(Cl)c(C(=O)Nc2ccc3c(c2)-c2c(c(C(N)=O)nn2-c2ccc(F)cc2)CC3)cc1OC` [Example 239, 8-[(2-chloro-4,5-dimethoxybenzoyl)amino]-1-(4-fluorophenyl)-4,5-dihydro-1H-benzo[g]indazole-3-carboxamide], under setting [2], the IC50 was no more than 1 µM.

Consider `N#Cc1ccc(-n2nc(C(N)=O)c3c2-c2cc(NC(=O)c4ccccc4Cl)ccc2CC3)cc1` [Example 369, 8-[(2-chlorobenzoyl)amino]-1-(4-cyanophenyl)-4,5-dihydro-1H-benzo[g]indazole-3-carboxamide], for which the IC50 (read-out: IKK-2 resin IC50) was no more than 1 µM.

For `NC(=O)c1nn(-c2ccc(F)cc2)c2c1CCc1ccc(NC(=O)c3cc(Cl)cnc3Cl)cc1-2` [Example 223, 8-{[(2,5-dichloropyridin-3-yl)carbonyl]amino}-1-(4-fluorophenyl)-4,5-dihydro-1H-benzo[g]indazole-3-carboxamide], under setting [2], the IC50 is no more than 1 µM.

For `Cc1ccc(C(=O)Nc2ccc3c(c2)-c2c(c(C(N)=O)nn2-c2ccc4c(c2)OCO4)CC3)c(Cl)n1` [Example 167, 1-(1,3-benzodioxol-5-yl)-8-{[(2-chloro-6-methylpyridin-3-yl)carbonyl]amino}-4,5-dihydro-1H-benzo[g]indazole-3-carboxamide], under “Table 4, read-out: IKK2 Resin IC50”, the IC50 was no more than 1 µM. As to `CSc1ccc(Cl)c(C(=O)Nc2ccc3c(c2)-c2c(c(C(N)=O)nn2-c2ccc(F)cc2)CC3)c1` [Example 235, 8-{[2-chloro-5-(methylthio)benzoyl]amino}-1-(4-fluorophenyl)-4,5-dihydro-1H-benzo[g]indazole-3-carboxamide], the IC50 under setting [2] is no more than 1 µM.

Consider `NC(=O)c1nn(-c2cccc(O)c2)c2c1CCc1ccc(NC(=O)c3cccnc3Cl)cc1-2` [Example 284, 8-{[(2-chloropyridin-3-yl)carbonyl]amino}-1-(3-hydroxyphenyl)-4,5-dihydro-1H-benzo[g]indazole-3-carboxamide], for which the IC50 (Table 10, read-out: IKK2 Resin IC50) was no more than 1 µM. As for `CS(=O)(=O)c1ccc(-n2nc(C(N)=O)c3c2-c2cc(NC(=O)c4ccc(C(F)(F)F)cc4[N+](=O)[O-])ccc2CC3)cc1` [Example 152, 1-[4-(methylsulfonyl)phenyl]-8-{[2-nitro-4-(trifluoromethyl)benzoyl]amino}-4,5-dihydro-1H-benzo[g]indazole-3-carboxamide], the IC50 (Table 3, read-out: IKK Resin IC50) is no more than 1 µM. Regarding `CS(=O)(=O)c1ccc(-n2nc(C(N)=O)c3c2-c2cc(NC(=O)c4ccccc4Cl)ccc2CC3)nc1` [Example 367, 8-[(2-chlorobenzoyl)amino]-1-[5-(methylsulfonyl)pyridin-2-yl]-4,5-dihydro-1H-benzo[g]indazole-3-carboxamide], the IC50 (read-out: IKK-2 resin IC50) was no more than 1 µM. As for `CS(=O)(=O)c1ccc(-n2nc(C(N)=O)c3c2-c2cc(NC(=O)c4cccc(Cl)c4N)ccc2CC3)cc1` [Example 118, 8-[(2-amino-3-chlorobenzoyl)amino]-1-[4-(methylsulfonyl)phenyl]-4,5-dihydro-1H-benzo[g]indazole-3-carboxamide], under setting [1], the IC50 was no more than 1 µM. Consider `CNC(=O)/C=C/c1ccc(-n2nc(C(N)=O)c3c2-c2cc(NC(=O)c4cccnc4Cl)ccc2CC3)cc1` [Example 301, 8-{[(2-chloropyridin-3-yl)carbonyl]amino}-1-{4-[(1E)-3-(methylamino)-3-oxoprop-1-enyl]phenyl}-4,5-dihydro-1H-benzo[g]indazole-3-carboxamide], for which the IC50 under setting [3] was no more than 1 µM. For the compound `CS(=O)(=O)c1ccc(-n2nc(C(N)=O)c3c2-c2cc(NC(=O)c4cc(Cl)ccc4Cl)ccc2CC3)cc1` [Example 108, 8-[(2,5-dichlorobenzoyl)amino]-1-[4-(methylsulfonyl)phenyl]-4,5-dihydro-1H-benzo[g]indazole-3-carboxamide], the IC50 under setting [1] was no more than 1 µM. Consider `CC(=O)CCc1ccc(-n2nc(C(N)=O)c3c2-c2cc(NC(=O)c4cccnc4Cl)ccc2CC3)cc1` [Example 302, 8-{[(2-chloropyridin-3-yl)carbonyl]amino}-1-[4-(3-oxobutyl)phenyl]-4,5-dihydro-1H-benzo[g]indazole-3-carboxamide], for which the IC50 under setting [3] is no more than 1 µM. Take `CN1CCN(c2ccc(Cl)c(C(=O)Nc3ccc4c(c3)-c3c(c(C(N)=O)nn3-c3ccc(S(C)(=O)=O)cc3)CC4)c2)CC1` [Example 126, 8-{[2-chloro-5-(4-methylpiperazin-1-yl)benzoyl]amino}-1-[4-(methylsulfonyl)phenyl]-4,5-dihydro-1H-benzo[g]indazole-3-carboxamide]: the IC50 under setting [1] was no more than 1 µM. Regarding `CS(=O)(=O)c1ccc(-n2nc(C(N)=O)c3c2-c2cc(NC(=O)c4ccncc4)ccc2CC3)cc1` [Example 110, 8-(isonicotinoylamino)-1-[4-(methylsulfonyl)phenyl]-4,5-dihydro-1H-benzo[g]indazole-3-carboxamide], the IC50 under setting [1] was no more than 1 µM. For the compound `CCS(=O)(=O)c1ccc(-n2nc(C(N)=O)c3c2-c2cc(NC(=O)c4cccnc4Cl)ccc2CC3)cc1` [Example 396, 8-{[(2-chloropyridin-3-yl)carbonyl]amino}-1-[4-(ethylsulfonyl)phenyl]-4,5-dihydro-1H-benzo[g]indazole-3-carboxamide], the IC50 (Table 18, read-out: IKK2 Resin IC50) was no more than 1 µM.
